The structures appear in SMILES notation.

The test system of assay [1] is Trichophyton rubrum. The assay can be described thus: Foot spray: agar diffusion test. In kind it is cell-based. To be noted: foot spray formula with aromatic alcohol 0.2 %. An excerpt:
(§1) Formula: • 2-propanol 40.0% • aromatic alcohol 0.2 % • allantoin 0.5 % • dem. water to 100 Test germs: special skin fungi such as Trichophyton rubrum, Trichophyton mentagrophytes (ATCC 9533), Microsporon gypseum Test method: Determination of the minimum inhibition concentration (method see under 1.) Data in % Test germs: special skin fungi such as Trichophyton rubrum, Trichophyton mentagrophytes, Microsporon gypseum Test method: Agar diffusion test Data as millimetres inhibition zone
(Agar diffusion results depend on both activity and mobility in agar.)

Assay [2] relates to Trichophyton mentagrophytes. The experiment in a line: Foot spray: agar diffusion test. The assay is classed as cell-based. To be noted: foot spray formula with aromatic alcohol 0.2 %.
Excerpt: as §1

In assay [3] the test system is Microsporon gypseum. The assay can be described thus: Foot spray: agar diffusion test. To be noted: foot spray formula with aromatic alcohol 0.2 %. The assay is classed as cell-based.
Excerpt: as §1

Assay [4] relates to Candida albicans ATCC 10231. The assay can be described thus: MIC values, water-soluble (inhibition titre, dilution series in CSL). The assay is classed as cell-based. The procedure:
(§2) Standard formulation: • Rewopal MPG 40 25.0 g • aromatic alcohol 10 mmol • dem.* water to 100 g • lactic acid for adjusting the pH value to 7.0 q.s.
(§3) In sterile test tubes, 5 ml each of the dilutions of the disinfectant in WSH (water of standardized hardness) are mixed with 5 ml double-concentrated casein peptone soybean flour peptone solution (CSL) or CSL and deactivating substances.
(§4) To determine the bacteriostatic action on Staphylococcus aureus and Proteus mirabilis the tubes are inoculated by adding 0.1 ml of a CSL culture diluted 1:10 with CSL and incubated for 24 h at 37°C.
(§5) To test the fungistatic action, 0.1 ml of an undiluted CSL culture of Candida albicans which has been incubated at 37°C for 72 h is used in each case. Evaluation takes place after 72 h at 37°C.
(§6) The highest dilution of the preparation in CSL or CSL and deactivating substances that still suppresses growth of the test germs after […] incubation serves as the measure of the multiplication-inhibiting action (inhibition titre).
(§7) In the case of the disinhibition tests, the culture media are to be adjusted to a pH value of 7.0 ± 0.2 according to the state of the disinfectant.
(§8) Standard formulation: • aromatic alcohol 5.0 % • Brij 58 5.0 % • 1,3-butanediol to 100 • Test germs: see above • Test method: see above

The subject of assay [5] is Staphylococcus aureus ATCC 6538. Described as above. The assay is classed as cell-based. The procedure: as §2, §3, §4, §5, §6, §7, §8
Assay [6] has as its system Mycobacterium terrae ATCC 15755. The experiment in a line: Germ carrier experiment with standard cotton. In kind it is cell-based. Also noted: key: E: individual colonies; M: several colonies; +: weak growth; ++: moderate growth; +++: heavy growth; ++++: very heavy growth; ∞: lawn growth. The note with it: Rewopal MPG 40 25.0%, aromatic alcohol 2.0 %, dem. water to 100. The procedure: • Rewopal MPG 40 25.0% • aromatic alcohol 2.0 % • dem. water to 100
The bacteria are elutriated with 5 ml CSL from a 24 h-old (37°C) culture onto CSA plates measuring approx. 9 cm in diameter, the suspension being diluted with CSL if necessary. The number of CFU/ml is to be determined using surface culture. It should be > 10^9/ml.
The sterilized and dried germ carriers are introduced into the bacterial suspension and left in it for 15 minutes, during which they are turned over twice.
A number (4) of contaminated, thoroughly impregnated germ carriers, corresponding to the proposed removal times - 15, 30, 60 and 120 minutes - is placed in a small dish and 10 ml of the disinfectant solution to be tested in WSH are poured over them. Air bubbles are to be removed by repeated turning of the germ carriers.
After the corresponding action times, the germ carriers are to be removed from the disinfectant solution, and after rinsing twice in each case for 1 min in 10 ml ML solution (see Appendix) to which the deactivating substances were optionally added, the germ carriers are placed onto the surface of a Löwenstein-Jensen nutrient medium with tweezers and moved backwards and forwards 3 to 4 times using light pressure. After inoculating the nutrient medium surface the small cloth is to remain lying directly above the condensed water level of the nutrient medium.
Germ carriers pre-treated in the same way, but kept in WSH for 120 minutes instead of in disinfectant solution are to be inoculated as a control. The inoculated tubes are incubated at 37°C for 3 weeks.

Assay [7] deals with Aspergillus niger ATCC 6275. The experiment in a line: MIC values, water-soluble (inhibition titre, dilution series in CSL). The assay is classed as cell-based.
Assay [8] has as its system Trichophyton rubrum. The experiment in a line: Foot spray: minimum inhibition concentration. The assay is classed as cell-based. To be noted: foot spray formula: 2-propanol 40.0%, aromatic alcohol 0.2 %, allantoin 0.5 %, dem. water to 100. From the text: (§9) Formula: • 2-propanol 40.0% • aromatic alcohol 0.2 % • allantoin 0.5 % • dem. water to 100 Test germs: special skin fungi such as Trichophyton rubrum, Trichophyton mentagrophytes (ATCC 9533), Microsporon gypseum Test method: Determination of the minimum inhibition concentration (method see under 1.) Data in %

Assay [9] deals with Trichophyton mentagrophytes (ATCC 9533). The assay can be described thus: Foot spray: minimum inhibition concentration. The assay is classed as cell-based. The note with it: foot spray formula: 2-propanol 40.0%, aromatic alcohol 0.2 %, allantoin 0.5 %, dem. water to 100.
Excerpt: as §9

Assay [10] relates to Microsporon gypseum. The assay can be described thus: Foot spray: minimum inhibition concentration. In kind it is cell-based. To be noted: foot spray formula: 2-propanol 40.0%, aromatic alcohol 0.2 %, allantoin 0.5 %, dem. water to 100.
Excerpt: as §9

Assay [11] has as its system Penicillium funiculosum ATCC 36839. The experiment in a line: MIC values, water-soluble (inhibition titre, dilution series in CSL). The assay is classed as cell-based.
Assay [12] concerns Microsporon luteus ATCC 15442. The assay can be described thus: Skin antiseptic a): test on skin of subjects, contamination after 1 h, ring method. In kind it is in vivo. The note with it: aromatic alcohol 1.0% in 1-propanol 30.0%, 2-propanol 45.0%, 0.2 ml on 10cm^2 skin, germs removed after 15 minutes, average of all 10 subjects. The protocol: • 1-propanol 30.0% • 2-propanol 45.0% • aromatic alcohol 1.0% • dem. water to 100 Test germ: Microsporon luteus ATCC 15442 Test method: Apply 0.2 ml preparation to 10cm^2 skin, allow to dry, cover with TEGADERM® film and leave to work for 1 h, contaminate with 0.1 ml germ suspension, remove after 15 minutes with ring method Reference: Control against Neo-Kodan® Number of subjects: 10 subjects

For assay [13], the system named is Proteus vulgaris NCTC 4635. The experiment in a line: MIC values, water-soluble (inhibition titre, dilution series in CSL). In kind it is cell-based.
Where [14] appears, read: standard formulation: Rewopal MPG 40 25.0 g, aromatic alcohol 10 mmol, dem. water to 100 g, pH 7.0.
The mark [15] stands for this setting: standard formulation: aromatic alcohol 5.0 %, Brij 58 5.0 %, 1,3-butanediol to 100.

With `OCCCc1ccccc1` [Alcohol 1, 3-phenyl propanol, reference compound], in the assay with Trichophyton rubrum [1] (use concentration 100%), the “inhibition zone, T. rubrum” value stood at 0 mm. Besides, the “inhibition zone, T. mentagrophytes” value in assay [2] (use concentration 100%) was 0 mm. Besides, the “inhibition zone, M. gypseum” value in the assay with Microsporon gypseum [3] (use concentration 100%) came out at 0 mm. In addition, the “MIC (minimum inhibiting concentration) C. albicans” value was found to be 625 μmol/100 ml test solution in assay [4] (setting [14]) and 625 µmol/100 ml test solution in assay [4] (setting [15]). The “MIC (minimum inhibiting concentration) S. aureus” value in assay [5] (setting [14]) is on record as 1,250 μmol/100 ml test solution; in assay [5] (setting [15]), 1,250 µmol/100 ml test solution. In assay [6], the “growth of M. terrae after action time 15'” value is on record as “++++”. For the same compound, the “growth of M. terrae after action time 30'” value in [6] is “++++”. The “growth of M. terrae after action time 60'” value in [6] is listed as “+++”. Also, the “growth of M. terrae after action time 120'” value in assay [6] is given as “+++”. Also, the “MIC (minimum inhibiting concentration) A. niger” value came out at 625 μmol/100 ml test solution in [7] (setting [14]) and 625 µmol/100 ml test solution in assay [7] (setting [15]). In the assay on Trichophyton rubrum [8], the “minimum inhibition concentration, T. rubrum” value came out at 6.25%. In assay [9], the “minimum inhibition concentration, T. mentagrophytes” value was determined as 6.25%. In addition, the “minimum inhibition concentration, M. gypseum” value in the assay with Microsporon gypseum [10] came to 6.25%. The figures for the “MIC (minimum inhibiting concentration) P. funi.” value in assay [11] (setting [14]) and in assay [11] (setting [15]) were 313 μmol/100 ml test solution and 313 µmol/100 ml test solution, respectively. In addition, the “Average value of RF (reduction factors)” value in assay [12] amounted to 0 log stages. Also, the “MIC (minimum inhibiting concentration) P. vulgaris” value in assay [13] (setting [14]) is 625 μmol/100 ml test solution; in [13] (setting [15]), 625 µmol/100 ml test solution.

With `CCCCCC(=Cc1ccccc1)CO` [Alcohol 8, α-amyl cinnamyl alcohol], the “inhibition zone, T. rubrum” value in the assay with Trichophyton rubrum [1] (use concentration 50%) is listed as 14 mm. For the same compound, the “inhibition zone, T. rubrum” value in the assay on Trichophyton rubrum [1] (use concentration 100%) stood at 23 mm. Moreover, in assay [2] (use concentration 50%), the “inhibition zone, T. mentagrophytes” value amounted to 14 mm. In addition, in assay [2] (use concentration 100%), the “inhibition zone, T. mentagrophytes” value is recorded as 22 mm. In the assay with Microsporon gypseum [3] (use concentration 50%), the “inhibition zone, M. gypseum” value amounted to 10 mm. The “inhibition zone, M. gypseum” value with Microsporon gypseum [3] (use concentration 100%) amounted to 19 mm. The “MIC (minimum inhibiting concentration) C. albicans” value in [4] (setting [14]) is reported as 313 μmol/100 ml test solution. Besides, the “MIC (minimum inhibiting concentration) S. aureus” value in [5] (setting [14]) came out at 39 μmol/100 ml test solution. Also, in assay [6], the “growth of M. terrae after action time 15'” value is “+++”, the “growth of M. terrae after action time 30'” value was “++”, the “growth of M. terrae after action time 60'” value is given as “+” and the “growth of M. terrae after action time 120'” value is recorded as “E”. Besides, the “MIC (minimum inhibiting concentration) A. niger” value in assay [7] (setting [14]) came out at 156 μmol/100 ml test solution. The “minimum inhibition concentration, T. rubrum” value in the assay with Trichophyton rubrum [8] is given as 1.56%. In assay [9], the “minimum inhibition concentration, T. mentagrophytes” value is on record as 1.56%. Besides, the “minimum inhibition concentration, M. gypseum” value in the assay on Microsporon gypseum [10] turned out to be 1.56%. In assay [11] (setting [14]), the “MIC (minimum inhibiting concentration) P. funi.” value was 313 μmol/100 ml test solution. Further, the “Average value of RF (reduction factors)” value in assay [12] is recorded as 1.9 log stages. Also, the “MIC (minimum inhibiting concentration) P. vulgaris” value in assay [13] (setting [14]) is 1,250 μmol/100 ml test solution.

Values taken from patent publication EP0799174B1, “BIOCIDAL ALCOHOLS, THEIR PRODUCTION AND THEIR USE” (SCHÜLKE & MAYR GMBH, priority 1994, dated 1996).
